Results from patent US6610689B2, “HIV protease inhibitors based on amino acid derivatives” (priority 2001, dated 2003).
Counter-ions that a name gives are not always drawn. Like-named read-outs stand apart in the source and are kept apart here.

Biological target: T1, HIV protease (Human immunodeficiency virus type 1 group M subtype B, UniProt P04585)
T1 construct: A third viral enzyme known as protease then cleaves the polyproteins
Assay: Enzymatic Assay for Determining the Inhibition Constant (Ki) of Synthetic Compounds Targeting the HIV Protease (fluorometric FRET assay)
Assay type: biochemical
Summary of the method: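 Fluorometric FRET assay following protease cleavage of an EDANS/DABCYL-labelled substrate. Initial velocities without (Vo) and with inhibitor (Vi) measured; Ki derived from the Henderson equation using inhibitor and substrate concentrations and Km.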

[1] = Anti-protease activity of Ne-amino acid substituted L-lysine derivatives and analogs of formula I, read-out: Ki

SMILES	Ki	further results
Cc1ccc(S(=O)(=O)N(CC(C)C)[C@@H](CCCCNC(=O)[C@H](Cc2c[nH]c3ccccc23)NS(=O)(=O)c2ccc(N)cc2)C(=O)O)cc1 [Example 12, Nα-Isobutyl-Nα-(4-methylbenzenesulfonyl)-Nε-[N′α-(4-aminobenzenesulfonyl)-L-tryptophanyl]-L-lysine]		Ki [1]: 0.000311 µM
Cc1ccc(S(=O)(=O)N(CC(C)C)[C@@H](CCCCNC(=O)[C@H](CC(N)=O)NC(=O)C(C)(C)C)C(=O)O)cc1 [Example 62, Nα-Isobutyl-Nα-(4-methylbenzenesulfonyl)-Nε-(N′α-pivaloyl-L-asparagyl)-L-lysine]	0.212 µM	
Cc1ccc(S(=O)(=O)N(CC(C)C)[C@@H](CCCCNC(=O)[C@@H](N)Cc2ccccc2)C(=O)O)cc1 [Example 79, Nα-Isobutyl-Nα-(4-methylbenzenesulfonyl)-Nε-(L-phenylalanyl)-L-lysine]	0.0015 µM	
Cc1ccc(S(=O)(=O)N(CC(C)C)[C@@H](CCCCNC(=O)[C@H](CC2CCCCC2)NC(=O)OCC2c3ccccc3-c3ccccc32)C(=O)O)cc1 [Example 37, Nα-Isobutyl-Nα-(4-methylbenzenesulfonyl)-Nε-[N′α-(9-fluorenylmethoxycarbonyl)-L-cyclohexylalanyl]-L-lysine]	0.028 µM	
COC(=O)[C@H](CCCCNC(=S)[C@H](Cc1ccccc1)NS(=O)(=O)c1ccc(C)cc1)N(CC(C)C)S(=O)(=O)c1ccc(C)cc1 [Example 71, Nα-Isobutyl-Nα-(4-methylbenzenesulfonyl)-Nε-[N′α-(4-methylbenzenesulfonyl)-L-thiophenylalanyl]-L-lysine Methyl Ester]	> 0.3 µM	
CC(C)CN([C@H](CO)CCCCNC(=O)[C@H](Cc1c[nH]c2ccccc12)NS(=O)(=O)c1ccc(N)cc1)S(=O)(=O)c1ccc(N)cc1 [Example 187, (2S,2′S) 2-N-(4-Aminobenzenesulfonyl)-2-N-isobutyl-6-N-[N′α-(4-aminobenzenesulfonyl)-S-tryptophanyl]-2,6-diaminohexanol]	0.0002 µM	
COc1ccc(S(=O)(=O)N(CC(C)C)[C@H](CO)CCCCNC(=O)[C@H](Cc2c[nH]c3ccccc23)NC(C)=O)cc1 [Example 172, (2S,2′S) 2-N-Isobutyl-2-N-(4-methoxybenzenesulfonyl)-6-N-(N′α-acetyl-S-tryptophanyl)-2,6-diaminohexanol]	> 0.3 µM	
Cc1ccc(S(=O)(=O)N[C@@H](Cc2ccccc2)C(=O)NCCC[C@@H](C(=O)O)N(CC(C)C)S(=O)(=O)c2ccc(C)cc2)cc1 [Example 154, Nα-Isobutyl-Nα-(4-methylbenzenesulfonyl)-Nε-[N′α-(4-methylbenzenesulfonyl)-L-phenylalanyl]-L-ornithine]	> 0.3 µM	
Cc1ccc(S(=O)(=O)N(CC(C)C)[C@H](CO)CCCCNC(=O)[C@H](Cc2ccccc2)NC(=O)C(C)(C)C)cc1 [Example 119, (2S,2′S) 2-N-Isobutyl-2-N-(4-methylbenzenesulfonyl)-6-N-(N′α-pivaloyl-S-phenylalanyl)-2,6-diaminohexanol]	0.0039 µM	
Cc1ccc(S(=O)(=O)N[C@@H](COCc2ccccc2)C(=O)NCCCC[C@@H](C(=O)O)N(CC(C)C)S(=O)(=O)c2ccc(C)cc2)cc1 [Example 40, Nα-Isobutyl-Nα-(4-methylbenzenesulfonyl)-Nε-[N′α-(4-methylbenzenesulfonyl)-O-benzyl-L-seryl]-L-lysine]	0.008 µM	
Cc1ccc(S(=O)(=O)N(CC(C)C)[C@H](CO)CCCCNC(=O)[C@H](Cc2c[nH]c3ccccc23)NS(=O)(=O)c2ccc(N)cc2)cc1 [Example 161, (2S,2′S) 2-N-Isobutyl-2-N-(4-methylbenzenesulfonyl)-6-N-[N′α-(4-aminobenzenesulfonyl)-S-tryptophanyl]-2,6-diaminohexanol]	0.0014 µM	
Cc1ccc(S(=O)(=O)N(CC(C)C)[C@@H](CCCCNC(=O)[C@H](Cc2ccccc2)NS(=O)(=O)c2cccs2)C(=O)NN)cc1 [Example 64, Nα-Isobutyl-Nα-(4-methylbenzenesulfonyl)-Nε-[N′α-(2-thiophenesulfonyl)-L-phenylalanyl]-L-lysine Hydrazide]		Ki [1]: > 0.3 µM
Cc1ccc(S(=O)(=O)N(CC(C)C)[C@@H](CCCCNC(=O)[C@@H](N)[C@@H](C)OCc2ccccc2)C(=O)O)cc1 [Example 91, Nα-Isobutyl-Nα-(4-methylbenzenesulfonyl)-Nε-(O-benzyl-L-threonyl)-L-lysine]	0.01 µM	
Cc1ccc(S(=O)(=O)N(CC(C)C)[C@H](CO)CCCCNC(=O)[C@@H](N)Cc2c[nH]c3ccccc23)cc1 [Example 183, (2S,2′S) 2-N-Isobutyl-2-N-(4-methylbenzenesulfonyl)-6-N-(S-tryptophanyl)-2,6-diaminohexanol Trifluoroacetic Acid Salt]		Ki (Table 1, compounds of formula I, read-out: Ki (anti-protease activity)): 0.0044 µM
Cc1ccc(S(=O)(=O)N(CC(C)C)[C@@H](CCCCNC(=O)[C@H](Cc2ccccc2)NS(=O)(=O)c2ccc([N+](=O)[O-])cc2)C(=O)O)cc1 [Example 10, Nα-Isobutyl-Nα-(4-methylbenzenesulfonyl)-Nε-[N′α-(4-nitrobenzenesulfonyl)-L-phenylalanyl]-L-lysine]	0.018 µM	
Cc1ccc(S(=O)(=O)N(CC(C)C)[C@@H](CCCCNC(=O)[C@H](CC(N)=O)NC(=O)OCc2ccccc2)C(=O)O)cc1 [Example 48, Nα-Isobutyl-Nα-(4-Methylbenzenesulfonyl)-Nε-(N′α-benzyloxycarbonyl-L-asparagyl)-L-lysine]	0.114 µM	
Cc1ccc(S(=O)(=O)N[C@@H](Cc2cc3ccccc3s2)C(=O)NCCCC[C@@H](C(=O)O)N(CC(C)C)S(=O)(=O)c2ccc(C)cc2)cc1 [Example 42, Nα-Isobutyl-Nα-(4-methylbenzenesulfonyl)-Nε-[N′α-(4-methylbenzenesulfonyl)-L-3-(2-thianaphthyl)-alanyl]-L-lysine]	0.256 µM	
COc1ccc(S(=O)(=O)N(CC2CCCC2)[C@H](CO)CCCCNC(=O)[C@H](Cc2c[nH]c3ccccc23)NC(=O)OC(C)(C)C)cc1 [Example 153, (2S,2′S) 2-N-Cyclopentylmethyl-2-N-(4-methoxybenzenesulfonyl)-6-N-(N′α-tert-butoxycarbonyl-S-tryptophanyl)-2,6-diaminohexanol]	0.024 µM	
